Experimental data reported in article PMC6522941, “Design, synthesis, and anticancer evaluation of novel quinoline derivatives of ursolic acid with hydrazide, oxadiazole, and thiadiazole moieties as potent MEK inhibitors” (Journal of Enzyme Inhibition and Medicinal Chemistry, 2019).

What was measured:
[1] = tested on: ERK1/2 and pERK1/2 in HeLa cells; assay: Western blot of ERK and pERK; format: cell-based, human; details: 48 h
Description: (§1) HeLa cells were seeded at a density of 5 × 10^6 cells per well and attached for 8 h, and then treated with different concentrations of compound 4d for 48 h. After the treatment, the cells were harvested and washed twice with PBS. The harvested cells were lysed with radio-immunoprecipitation assay (RIPA) lysis buffer (Beyotime Biotech., Nantong, China) with 1% cocktail (Sigma-Aldrich, St. Louis, MO, USA). Whole-cell protein lysates were prepared and centrifuged at 12,000 rpm for 10 min at 4 °C. The total proteins were determined using Bradford reagent (Bio-Rad Laboratories, Inc., Hercules, CA, USA). Exactly 40 μg of protein per lane was separated through sodium dodecyl sulphate-polyacrylamide gel electrophoresis and then transferred onto a polyvinylidene difluoride membrane (Millipore, Bedford, MA, USA). The membranes were incubated with each antibody and detected through immunoblot analysis. All of the antibodies were purchased from Cell signalling Technology, Inc. (Boston, MA, USA) and diluted in accordance with the manufacturer’s instruction. Proteins were visualised using a C-Digit® imaging system (LI-COR, Lincoln, NE, USA).
Subsequently, to evaluate the MEK inhibition of compound 4d in cancer cells, western blot analyses were also carried out to evaluate the expression levels of ERK and phosphorylated ERK (pERK) proteins in compound 4d-treated HeLa cells.

[2] = tested on: Cytochrome c, Bax, Bcl-2, Caspase-3, Caspase-9 in HeLa cells; assay: Western blot of mitochondrial apoptosis markers; format: cell-based, human; details: 0.1 and 0.2 μM, 48 h
Description: as §1
To further explore whether compound 4d induced apoptosis via the mitochondrial signalling pathway, a number of key protein markers involved in mitochondria-mediated apoptosis were examined by Western blot analysis. The Bcl-2 family members are important regulators of the mitochondrial apoptotic pathway. Two most important members of Bcl-2 family, the anti-apoptotic protein Bcl-2 and the pro-apoptotic protein Bax, are key regulators of this progress. As shown in Figure 6(a), the expression level of Bax was elevated in HeLa cells compared with the control group, whereas the expression level of Bcl-2 was decreased after treatment with compound 4d for 48 h. […] Moreover, cytochrome c is reported as a key protein involved in the activation of the downstream caspases that trigger apoptosis. Caspases are a family of cysteinyl aspartate-specific proteases involved in apoptosis, which can be classified into groups of initiators (caspases 8, 9, and 10) and executioners (caspases 3, 6, and 7)[48]^,[49]. In this assay, we also examined the roles of cytochrome c, caspase-3, and caspase-9 in the cellular response to compound 4d.

## CC(=O)NNC(=O)C12CCC(C)C(C)C1C1=CCC3C4(C)Cc5cc6cc(Cl)ccc6nc5C(C)(C)C4CCC3(C)C1(C)CC2 (centres unmarked) [Compound 4d, N-[5′-chloro-ursa-12-en-(2,3)-quinoline-28-oyl]-acetohydrazide]
[1]; 0.05 μM
  expression level of pERK1/2, % of the control group: 74.7%
[1]; 0.1 μM
  expression level of pERK1/2, % of the control group: 41.3%
[1]; 0.2 μM
  expression level of pERK1/2, % of the control group: 29.5%
[1]; 0.05, 0.1, 0.2 μM
  expression levels of ERK1/2: slightly decreased
  expression levels of pERK1/2: significantly downregulated
[2]
  level of caspase-3: significantly increased
  level of caspase-9: significantly increased
  ratio of Bax/Bcl-2: increased in a dose-dependent manner
[2]; compared with control
  expression level of Bax: elevated
  expression level of Bcl-2: decreased
[2]; cytosol
  level of cytochrome c: significantly increased
